The test system of series [1] is mice. The series is described as follows: Kidney uptake of 111In- and 88Y-labeled F(ab)2 fragments of MN-14. In kind it is in vivo. The source says: (§1) After cervical dislocation, the animals were dissected.
Series [2] deals with mice. As to the kind of experiment: Biodistribution of 99mTc-Fab′ NP-4 under poly-L-lysine of different molecular weight and lysine/poly-lysine mixtures. The following applies: for Blood level of 99mTc-Fab′ NP-4 / Kidney uptake of 99mTc-Fab′ NP-4 / Kidney uptake, % control / Liver uptake of 99mTc-Fab′ NP-4 / Lungs uptake of 99mTc-Fab′ NP-4 / Spleen uptake of 99mTc-Fab′ NP-4: 15-30 kD, 4 h p.i. On the procedure: Female BALB/c mice, 19 to 22 g of weight, 4 to 5 weeks of age (Charles River Laboratories, Boston, Mass.) were used as non-tumor-bearing animals. For a human tumor xenograft model, the human colon carcinoma cell line GW39 (Primus et al supra) was grown subcutaneously in 5- to 6-week-old female athymic mice (Harlan, Madison, Wis.). Animals were injected intravenously into the tail vein with approximately 5-10 μg of antibody fragment protein (i.e., 25-40 μCi of ^99mTc, ^188Re, and ^111In, resp.; 4 μCi of ^88Y, and 10 μCi of ^125I, respectively).
The mice were sacrificed after 4 h and 24 h for ^99mTc-labeled antibodies, and after 4, 24, 72, 96 and 168 h for ^125I, ^111In, ^88Y and ^188Re-labeled antibodies. Mice were sacrificed by anesthesia with sodium pentobarbital and bled by cardiac puncture. After cervical dislocation, the animals were dissected. Radioactivity in the tumors and tissues (liver, spleen, kidney, lung, intestine, blood and bone) was determined by gamma scintillation counting using an injection standard to correct for physical decay.
L-lysine, D-lysine and L-arginine monohydrochloride salts (Sigma, St. Louis, Mo.) were dissolved in phosphate-buffered saline (PBS) at a concentration of 160 mg/ml. L-lysine ethyl ester dihydrochloride was dissolved in PBS to yield a concentration of 80 mg/ml. Poly-L-lysine (1-4 kDa and 15-30 kDa) were used as hydrochloride salts at concentration of 25 mg/ml and 10 mg/ml, respectively.
Animals were injected with the lysine and/or poly-lysine solutions intraperitoneally in amounts and at frequencies as shown below. Human patients were infused intravenously over a three-hour period with 1.5 liters of a commercially available amino acid solution starting 15 min before the antibody injection. The data of a total of 77 patients examined with ^99mTc-labeled anti-CEA Fab′ (NP-4: n=19; F023C5: n=58) were taken as controls (infused with the same volume of 0.9% saline instead of the amino acid solution).
To attempt to reduce the necessity of frequent injections of the kidney uptake reducing agent, polymeric substances of higher molecular weight were investigated.
To reach maximal effectiveness with as few injections as possible, combinations of lysine and poly-lysine were tested.

For series [3], the system named is GW39 colonic cancer xenograft bearing nude mice. The series is described as follows: Biodistribution of anti-CEA 99mTc-Fab′ NP-4 under L-lysine / poly-L-lysine treatment. In kind it is in vivo.
Source text: as §1

The next series has as its system BALB/c mice. The series is described as follows: Kidney uptake and biodistribution of 99mTc-Fab′ NP-4 under lysine treatment. The note with it: for Kidney uptake, % of contr.: L-lysine 2000 μg/g. In kind it is in vivo. On the procedure: as §1
(§2) L-lysine was injected i.p. in hourly intervals from 30 min before until 3 h after intravenous antibody injections (−30′, 1 h, 2 h, 3 h p.i.). […] At doses above this threshold, a strong dose-effect relationship was found. At 4×2000 μg/g, kidney uptake was reduced to 19±1% of the untreated control group at 4 h p.i.

For series [4], the system named is nude mice bearing GW39 colonic cancer xenografts. The series is described as follows: Kidney uptake and dosimetry of 188Re-Fab′ Mu-9 under L-lysine treatment. In kind it is in vivo.
Source text: as §1
No effect on the uptake in the tunor or other organs was observed.

In series [5] the test system is GW39 colonic cancer xenograft bearing nude mice. The series is described as follows: Dosimetry of 111In/88Y-Bz-DTPA-Fab′ MN-14 under L-lysine treatment. In kind it is in vivo. The note with it: L-lysine four times 2000 μg/g i.p. On the procedure: as §1
To test the effectiveness of L-lysine in reduction of kidney uptake of indium and yttrium-labeled Fab′ fragments, a mixture of ^111In and ^88Y-labeled Fab′ fragments of the anti-CEA antibody MN-14 were injected into GW39 colon carcinoma bearing nude mice (injected with four times 2000 μg/g L-lysine; the control group were untreated). FIG. 4 and Table 4 suns the results.

Series [6] deals with mice. As to the kind of experiment: Kidney uptake of 125I-labeled Fab′ NP-4 and dosimetry for 131I-labeled Fab′ under L-lysine. In kind it is in vivo.
Source text: as §1

The subject of series [7] is mice. As to the kind of experiment: Kidney uptake and dosimetry of yttrium-labeled F(ab′)2 of anti-CD22 LL2 under L-lysine. The format is in vivo. The note with it: Lys treated.
The test system of series [8] is mice. The series is described as follows: Maximum tolerated dose and toxicity of lysine and poly-lysine. In kind it is in vivo.
Source text: Comparison of the results in the control mice with those in the mice that receive the lysine and/or poly-lysine allows determination of the optimal dosage required to achieve the desired effect on kidney uptake of radioactivity. Determination of the dosage of lysine and/or poly-lysine that can be tolerated before toxic effects are observed can be achieved by physiological examination and histological observation of organs by methods. The optimal dosages of lysine and/or poly-lysine that are determined using the mouse model are used to guide the determination of appropriate dosage levels in human subjects using a standard dosage escalation regimen. Methods for determining effective dosages of lysine and/or poly-lysine for reducing kidney uptake are further illustrated in the Examples, below.
as §2

[9] abbreviates: 10 μg/g once 30′ before antibody.
The mark [10] stands for this setting: 20 μg/g once 30′ before antibody.
The mark [11] stands for this setting: 131I-Fab′ NP-4, L-lysine 4 × 2 mg/g.

On to “Y labeled F(ab)2: 88Y-Bz-DTPA-labeled F(ab)2 fragment of the anti-CEA antibody MN-14”, for which the “highest value of kidney uptake” value in the series on mice [1] (up to 24 h p.i., no lysine) was “about 43 % of the injected dose/g”.
With “Poly-L-lysine [poly-L-lysine (15-30 kD)]”, the kidney uptake reduction with mice [2] (1×20 μg/g) was 50%. In addition, in the series with mice [2] (setting [9]), the “Blood level of 99mTc-Fab′ NP-4” value worked out at 4.7 ± 0.3; the “Kidney uptake of 99mTc-Fab′ NP-4” value was found to be 73.9 ± 7.2; the “Kidney uptake, % control” value stood at 57.8 % control; the “Liver uptake of 99mTc-Fab′ NP-4” value is on record as 7.3 ± 3.7. In the series on mice [2] (setting [9]), the “Lungs uptake of 99mTc-Fab′ NP-4” value turned out to be 6.8 ± 4.3 and the “Spleen uptake of 99mTc-Fab′ NP-4” value is 3.7 ± 0.4. Further, in the series with mice [2] (setting [10]), the “Blood level of 99mTc-Fab′ NP-4” value is 4.7 ± 0.2; the “Kidney uptake of 99mTc-Fab′ NP-4” value amounted to 55.7 ± 6.5; the “Kidney uptake, % control” value was determined as 43.6 % control; the “Liver uptake of 99mTc-Fab′ NP-4” value is listed as 4.6 ± 0.7. For the same molecule, in the series with mice [2] (setting [10]), the “Lungs uptake of 99mTc-Fab′ NP-4” value is 7.9 ± 3.2 and the “Spleen uptake of 99mTc-Fab′ NP-4” value is on record as 3.8 ± 0.3.
On to `NCCCC[C@H](N)C(=O)O` [L-lysine], for which, in series [3] (L-lysine 0.5 mg/g i.p. at −30′, 1, 2, 3 h, 4 h p.i.), the “Kidney uptake, % of contr.” value is on record as 63.0 % of contr. Moreover, in [3] (L-lysine 0.5 mg/g i.p. at −30′, 1, 2, 3 h, 24 h p.i.), the “Kidney uptake, % of contr.” value is 70.0 % of contr. In addition, the “Kidney uptake, % of contr.” value in series [3] (L-lysine 2 mg/g i.p. at −30′, 1, 2, 3 h, 4 h p.i.) was 29.7 % of contr. In series [3] (L-lysine 2 mg/g i.p. at −30′, 1, 2, 3 h, 24 h p.i.), the “Kidney uptake, % of contr.” value is 30.0 % of contr. The “influence on the tumor uptake or uptake in any other organ than the kidneys” value in [3] (nude mice bearing human colonic xenografts) is “no significant influence”. The “kidney uptake of 99mTc-Fab′ NP-4, % of the untreated control group” value in the series on BALB/c mice (4×2000 μg/g i.p. in hourly intervals, 4 h p.i.) is reported as 19±1%. The “Kidney uptake, % of contr.” value with BALB/c mice (injection 4x at −30′, 1, 2, 3 h, 4 h p.i.) is 15.5 % of contr. In addition, the “Kidney uptake, % of contr.” value in the series with BALB/c mice (injection once at −30′, 4 h p.i.) was 56.4 % of contr. In the series with BALB/c mice (injection twice at −30′ and 1 h, 4 h p.i.), the “Kidney uptake, % of contr.” value is 44.1 % of contr. For the same molecule, the “effect on kidney uptake of 99mTc-Fab′ NP-4” value with BALB/c mice (doses below four times 100 μg/g body weight, hourly intervals) is recorded as “no significant effect”. Besides, the “persistence of uptake reduction of 99mTc-Fab′” value with BALB/c mice (mouse, in vivo) is 24 h. Further, in series [4] (188Re-Fab′ Mu-9), the “effect on the uptake in the tumor or other organs” value is “No effect”; the “lys/contr. dose ratio, Blood” value is recorded as 0.79; the “lys/contr. dose ratio, Bone” value is 0.89; the “lys/contr. dose ratio, GW39” value was 1.23. Moreover, in series [4] (188Re-Fab′ Mu-9), the “lys/contr. dose ratio, Kidney” value came out at 0.39; the “lys/contr. dose ratio, Liver” value turned out to be 0.96; the “lys/contr. dose ratio, Lung” value is 0.76; the “lys/contr. dose ratio, Spleen” value was found to be 0.94. For the same molecule, in series [4] (188Re-Mu-9 Fab′ dosimetry), the “effect on the tumor dose” value is reported as “no effect on the tumor dose could be observed” and the “kidney dose, % of the renal dose in the control group” value is “approximately 30%”. In series [4] (4 h p.i.), the “kidney uptake of 188Re-Fab′ Mu-9, % of the untreated control” value was 29%. In [5], the “Kidney dose relative to control (100%), based on 88Y” value worked out at 18.8% and the “Kidney dose relative to control (100%), based on 111In” value was 22.9%. Also, the “kidney uptake of iodine-labeled Fab′, % of the nontreated control” value with mice [6] (125I-Fab′ NP-4, 4 h p.i.) is listed as 38.7%. Besides, in the series with mice [6] (setting [11]), the “Lys/control dose ratio, Blood” value was 0.99; the “Lys/control dose ratio, Kidney” value is reported as 0.51; the “Lys/control dose ratio, Liver” value is 0.94; the “Lys/control dose ratio, Lung” value is reported as 0.95. In addition, the “Lys/control dose ratio, Spleen” value in the series on mice [6] (setting [11]) came to 0.81. Besides, the “reduction of the absorbed dose to the kidney” value in the series on mice [6] (calculated for a 131I-labeled Fab′ fragment) is listed as 50%. Also, the “Kidney dose, % control” value with mice [7] is reported as 50.9 % control. Besides, the “Kidney uptake, % control” value in the series with mice [7] (4 h p.i.) is given as 58.5 % control. Also, the “Kidney uptake, % control” value with mice [7] (48 h p.i.) came to 49.6 % control. The “tolerability at the MTD” value in the series with mice [8] (4×2500 μg/g, monitored for three months) is listed as “tolerated without any obvious short or long term toxicity”. Moreover, in the series with mice [8] (4× injected i.p. in hourly intervals), the “maximum tolerated dose (MTD)” value was 2500 µg/g. Besides, the “toxicity at doses higher than the MTD” value in the series on mice [8] (above 4×2500 μg/g) was “began to develop fluid in the body cavities”. In addition, in the series on mice [1] (F(ab′)2 fragments), the “persistence of reduction of uptake” value was “persisted for several days”. Besides, the “kidney uptake of 111In- and 88Y-F(ab′)2, % of control” value with mice [1] (lysine treatment) is “approximately 30%”.

The values above are taken from US20060182683A1, “Methods for reduced renal uptake of protein conjugates” (Center for Molecular Medicine and Immunology, priority 1995, published 2006).
